Laboratory results published in US8536165B2, “Azabiphenylaminobenzoic acid derivatives as DHODH inhibitors” (Almirall, S.A., priority 2007, dated 2013).

What was measured:
HIV = conditions: at concentration that can be obtained with conventional dosing; cited from earlier work
human DHODH = human DHODH (Homo sapiens (Human), UniProt Q02127); assay: Inhibition of Human DHODH Activity Assay; type: biochemical; conditions: chromogen reduction assay with DCIP, human enzyme extract, 10 min at room temperature; read-out: hDHODH IC50
Experimental: DHODH activity and its inhibition were studied using a chromogen reduction assay with DCIP (2,6-dichlorophenol-indophenol). […] Enzyme extracts (8 μl, ˜1.5 μg of human protein) were incubated in 96-well plates. The assay mixture (200 μl) contained 200 μM CoQD, 100 μM L-DHO, 120 μM DCIP in the assay buffer (100 mM HEPES pH 8.0, 150 mM NaCl, 10% Glicerol, 0.05% Triton X-100) and 2 μl of test compound. The compounds were dissolved in DMSO at a stock concentration of 1 mM, and tested at different concentrations […] to calculate an IC50 (concentration of inhibitor required for 50% of inhibition).
The reaction was initiated by adding the enzyme and then incubated for 10 min at room temperature before measuring DCIP reduction by counting a decrease in absorbance at 600 nm using standard instrumentation (Spectramax).
All reactions were carried out in duplicate and graphs, determining IC50 values for each compound, were plotted using the ABase software.

Sequence of human DHODH (Q02127 whole entry): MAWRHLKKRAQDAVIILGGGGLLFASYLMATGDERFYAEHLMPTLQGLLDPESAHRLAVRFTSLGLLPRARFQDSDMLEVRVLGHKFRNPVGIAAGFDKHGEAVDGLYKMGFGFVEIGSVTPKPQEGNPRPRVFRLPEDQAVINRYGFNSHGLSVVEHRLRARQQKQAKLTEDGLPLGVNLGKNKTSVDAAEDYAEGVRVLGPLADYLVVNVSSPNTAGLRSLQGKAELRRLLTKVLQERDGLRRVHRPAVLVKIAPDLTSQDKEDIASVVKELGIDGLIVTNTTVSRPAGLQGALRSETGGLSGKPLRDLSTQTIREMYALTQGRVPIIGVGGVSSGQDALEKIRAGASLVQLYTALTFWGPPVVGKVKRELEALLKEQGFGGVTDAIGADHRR

Structure (SMILES) | reduction of HIV replication (HIV) | IC50 (human DHODH) [nM]
Cc1oncc1C(=O)Nc1ccc(C(F)(F)F)cc1 [Leflunomide] | about 75% | 
O=C(O)c1cc(C2CC2)ccc1Nc1cnc(-c2cc(C(F)(F)F)ccc2F)nc1 [Example 104, 5-Cyclopropyl-2-(2-(2-fluoro-5-(trifluoromethyl)phenyl)pyrimidin-5-ylamino)benzoic acid] |  | 21
